Source: patent publication US20230002439A1, “CRYSTALLINE FORMS OF VAMOROLONE” (ReveraGen BioPharma, Inc., priority 2021, published 2023)
Each block holds one compound with its values, some of them ahead of it.

How the values were obtained:
[1] = DSC thermal treatment and hot-stage pXRD (Form II vs. Form I); format: physicochemical
Procedure: The melting of vamorolone was performed in a DSC apparatus at a heating rate of 10° C./min. The DSC furnace was programmed to cool at 10° C./min down to −40° C. A second heating cycle at a heating rate of 10° C./min was performed.
The solid samples were examined using an X-ray diffractometer (Bruker D8 advance). The system is equipped with highly-parallel x-ray beams (Göbel Mirror) and a LynxEye detector. The samples were scanned from 3 to 40° 20 at a step size of 0.02° 20 and a time per step of 19.70 seconds. The tube voltage and current were 45 kV and 40 mA, respectively. The sample was transferred from the sample container onto a zero background XRD-holder and gently ground.
DSC analyses were conducted on a TA Instruments Q200. The calibration standard was indium. A sample of 2.0 mg in weight was placed into a TA DSC pan, and weight was accurately recorded. Crimped pans were used for analysis, and the samples were heated under nitrogen (50 mL/min) at a rate of 10° C./min, up to a final temperature of 260° C.
However, the pXRD pattern obtained after the sample was cooled down to room temperature is similar to the initial material. […] It is estimated from DSC and hot-stage pXRD data that the transition temperature could well be above 100° C. […]

[2] = Thermogravimetric analysis (TGA); format: physicochemical
Procedure: TGA analyses were carried out on a TA Instruments TGA Q500. Approximately 2.0 mg of samples were placed in a tared platinum or aluminum pan, automatically weighed, and inserted into the TGA furnace. The samples were heated at 10° C./min to a final temperature of 300° C. The purge gas is nitrogen for balance at 40 mL/min and the sample at 60 mL/min, respectively.

[3] = test system: mouse models of inflammatory states; settings: multiple mouse models; including loss of growth stunting and loss of bone fragility; cited from earlier work
[4] = biological target: T1, glucocorticoid receptor (Homo sapiens, UniProt P04150); settings: pre-clinical data, background statement; cited from earlier work
T1 sequence (P04150 1-777): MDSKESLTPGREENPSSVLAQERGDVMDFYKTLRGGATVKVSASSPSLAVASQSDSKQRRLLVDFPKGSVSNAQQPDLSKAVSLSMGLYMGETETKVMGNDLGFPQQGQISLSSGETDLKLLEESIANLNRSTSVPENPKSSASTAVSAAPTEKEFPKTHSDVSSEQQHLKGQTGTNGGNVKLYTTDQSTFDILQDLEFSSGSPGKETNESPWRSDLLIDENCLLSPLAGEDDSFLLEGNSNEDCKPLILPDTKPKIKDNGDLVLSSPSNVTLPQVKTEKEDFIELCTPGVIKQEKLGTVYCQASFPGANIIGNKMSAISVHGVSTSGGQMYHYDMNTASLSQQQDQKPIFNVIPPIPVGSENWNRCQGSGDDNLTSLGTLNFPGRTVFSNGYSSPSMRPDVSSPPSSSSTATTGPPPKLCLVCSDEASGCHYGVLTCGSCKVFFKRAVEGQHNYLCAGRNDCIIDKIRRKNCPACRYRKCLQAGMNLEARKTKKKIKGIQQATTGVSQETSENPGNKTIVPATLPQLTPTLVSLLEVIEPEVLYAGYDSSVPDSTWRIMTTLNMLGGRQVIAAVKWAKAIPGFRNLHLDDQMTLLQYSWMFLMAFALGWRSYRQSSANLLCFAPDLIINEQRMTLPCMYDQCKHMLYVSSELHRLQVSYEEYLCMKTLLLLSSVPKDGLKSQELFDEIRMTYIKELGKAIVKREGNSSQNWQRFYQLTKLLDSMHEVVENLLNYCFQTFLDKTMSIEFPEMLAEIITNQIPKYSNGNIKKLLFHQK

TGA weight loss ([2]; FIG. 7, temperature not stated): < 0.5% | TGA weight loss ([2]; below about 200° C.): less than 0.5%
SMILES: C[C@@H]1C[C@H]2[C@@H]3CCC4=CC(=O)C=C[C@]4(C)C3=CC[C@]2(C)[C@@]1(O)C(=O)CO [Form IV, 17α,21-dihydroxy-16α-methylpregna-1,4,9(11)-triene-3,20-dione]

TGA weight loss ([2]; below about 225° C.): less than 1%
SMILES: C[C@@H]1C[C@H]2[C@@H]3CCC4=CC(=O)C=C[C@]4(C)C3=CC[C@]2(C)[C@@]1(O)C(=O)CO [Form VII, 17α,21-dihydroxy-16α-methylpregna-1,4,9(11)-triene-3,20-dione]

Continued, compound first:

SMILES: C[C@@H]1C[C@H]2[C@@H]3CCC4=CC(=O)C=C[C@]4(C)C3=CC[C@]2(C)[C@@]1(O)C(=O)CO [Form I, 17α,21-dihydroxy-16α-methylpregna-1,4,9(11)-triene-3,20-dione]
relative stability of polymorphs ([1]; below the transition temperature): most stable form

SMILES: C[C@@H]1C[C@H]2[C@@H]3CCC4=CC(=O)C=C[C@]4(C)C3=CC[C@]2(C)[C@@]1(O)C(=O)CO [Form II, 17α,21-dihydroxy-16α-methylpregna-1,4,9(11)-triene-3,20-dione]
relative stability of polymorphs ([1]; above the transition temperature): most stable

SMILES: C[C@@H]1C[C@H]2[C@@H]3CCC4=CC(=O)C=C[C@]4(C)C3=CC[C@]2(C)[C@@]1(O)C(=O)CO [vamorolone, 17α,21-dihydroxy-16α-methylpregna-1,4,9(11)-triene-3,20-dione]
side effect profiles [3]: dramatically improves side effect profiles | binding to the glucocorticoid receptor [4]: binds potently
